In patent publication US20130150325A1, “3-(Fluorovinyl)pyrazoles and their use” (BAYER INTELLECTUAL PROPERTY GMBH, priority 2011, published 2013) one finds IC50 data, which are given here for 28 compounds.

As a reminder, the IC50 is the concentration that gives 50% inhibition. Read a high IC50 as weaker potency.

This test concerns HCT 116 cells transfected with a luciferase reporter under the control of an HIF-responsive sequence. As to the kind of experiment: HIF-luciferase assay. It counts as cell-based. The following applies: Homo sapiens; HCT 116 HIF-luciferase reporter cells, hypoxia chamber (1% O2), 24 h; in some cases means of up to four individual determinations. On the procedure:
HCT 116 cells were transfected in a stable manner with a plasmid which contained a luciferase reporter under the control of an HIF-responsive sequence. These cells were sown in microtitre plates [20 000 cells/cavity in RPMI 1640 medium with 10% foetal calf serum (FCS) and 100 μg/ml of hygromycin]. Incubation was carried out overnight under standard conditions (5% CO2, 21% O2, 37° C., moistened). The following morning the cells were incubated with various concentrations of the test substances (0-10 μmol/l) in a hypoxia chamber (1% O2). After 24 h, Bright Glo reagent (Promega, Wisconsin, USA) was added in accordance with the manufacturer's instructions, and after 5 min the luminescence was measured. Cells which were incubated under normoxia served as background controls.
The IC50 values from this assay for representative working examples are listed in the following table (in same cases as means of up to four individual determinations): […]
As to `CNc1ccc(Cn2nc(/C(F)=C/c3ccc(OC(F)(F)F)cc3)cc2C)cn1` [Example 79, 5-[(3-{(Z)-1-Fluoro-2-[4-(trifluoromethoxy)phenyl]vinyl}-5-methyl-1H-pyrazol-1-yl)methyl]-N-methylpyridine-2-amine], the IC50 came out at 1 nM.

For the compound `CNc1ccc(Cn2nc(/C(F)=C/c3ccc(C4(C(F)(F)F)CC4)cc3)cc2C)cn1` [Example 84, 5-({3-[(Z)-1-Fluoro-2-{4-[1-(trifluoromethyl)cyclopropyl]phenyl}vinyl]-5-methyl-1H-pyrazol-1-yl}methyl)-N-methylpyridine-2-amine], 2 nM corresponded to half-maximal inhibition (IC50).

Consider `CNc1ccc(Cn2nc(/C=C(\F)c3ccc(OC(F)(F)F)cc3)cc2C)cn1` [Example 117, 5-[(3-{(Z)-2-Fluoro-2-[4-(trifluoromethoxy)phenyl]vinyl}-5-methyl-1H-pyrazol-1-yl)methyl]-N-methylpyridine-2-amine], for which 30 nM corresponded to half-maximal inhibition (IC50).

Take `Cc1cc(/C(F)=C/c2ccc(C(C)(C)C)cc2)nn1Cc1cccc(C2(O)CC2)c1` [Example 52, 1-[3-({3-[(Z)-2-(4-tert-Butylphenyl)-1-fluorovinyl]-5-methyl-1H-pyrazol-1-yl}methyl)phenyl]-cyclopropanol]: the IC50 turned out to be 1 nM.

With `CNc1ccc(Cn2nc(/C(F)=C/c3ccc(SC(F)(F)F)cc3)cc2C)cn1` [Example 82, 5-({3-[(Z)-1-Fluoro-2-{4-[(trifluoromethyl)sulphanyl]phenyl}vinyl]-5-methyl-1H-pyrazol-1-yl}-methyl)-N-methylpyridine-2-amine], the midpoint of inhibition, the IC50, lay at 1 nM.

Turning to `Cc1cc(/C(F)=C/c2ccc(OC(F)(F)F)cc2)nn1Cc1ccnc(N2CCN(C3CC3)CC2)c1` [Example 102, 1-Cyclopropyl-4-{4-[(3-{(Z)-1-fluoro-2-[4-(trifluoromethoxy)phenyl]vinyl}-5-methyl-1H-pyrazol-1-yl)methyl]pyridin-2-yl}piperazine], it took 0.5 nM to reach half-maximal inhibition (IC50).

`Cc1cc(/C(F)=C/c2ccc(C3(C(F)(F)F)CC3)cc2)nn1Cc1cccc(C2(CO)CC2)c1` [Example 59, {1-[3-({3-[(Z)-1-Fluoro-2-{4-[1-(trifluoromethyl)cyclopropyl]phenyl}vinyl]-5-methyl-1H-pyrazol-1-yl}methyl)phenyl]cyclopropyl}methanol] gave an IC50 of 2 nM.

On to `Cc1ccc(Cn2nc(/C=C(\F)c3ccc(OC(F)(F)F)cc3)cc2C)cc1` [Example 111, 3-{(Z)-2-Fluoro-2-[4-(trifluoromethoxy)phenyl]vinyl}-5-methyl-1-(4-methylbenzyl)-1H-pyrazole], for which the IC50 came to 40 nM.

The compound `Cc1cc(/C(F)=C/c2ccc(C(C)(C)C(F)(F)F)c(F)c2)nn1Cc1cccc(C2(O)CC2)c1` [Example 50, 1-{3-[(3-{(Z)-1-Fluoro-2-[3-fluoro-4-(1,1,1-trifluoro-2-methylpropan-2-yl)phenyl]vinyl}-5-methyl-1H-pyrazol-1-yl)methyl]phenyl}cyclopropanol] returned an IC50 of 1 nM.

The compound `Cc1cc(/C=C(\F)c2ccc(OC(F)(F)F)cc2)nn1Cc1cccc(C(C)(C)O)c1` [Example 121, 2-{3-[(3-{(Z)-2-Fluoro-2-[4-(trifluoromethoxy)phenyl]vinyl}-5-methyl-1H-pyrazol-1-yl)methyl]phenyl}propan-2-ol] returned an IC50 of 40 nM.

The compound `Cc1cc(/C(F)=C/c2ccc(OC(F)(F)F)cc2)nn1Cc1cccc(C(=O)N2CCN(C3CC3)CC2)c1` [Example 37, (4-Cyclopropylpiperazin-1-yl) {3-[(3-{(Z)-1-fluoro-2-[4-(trifluoromethoxy)phenyl]vinyl}-5-methyl-1H-pyrazol-1-yl)methyl]phenyl}methanone] gave an IC50 of 3 nM.

`CNc1ccc(Cn2nc(/C(F)=C/c3ccc(C(C)(C)C(F)(F)F)cc3)cc2C)cn1` [Example 83, 5-[(3-{(Z)-1-Fluoro-2-[4-(1,1,1-trifluoro-2-methylpropan-2-yl)phenyl]vinyl}-5-methyl-1H-pyrazol-1-yl)methyl]-N-methylpyridine-2-amine] yielded a 50% inhibitory concentration (IC50) of 0.4 nM.

In the case of `Cc1cc(/C(F)=C/c2ccc(OC(F)(F)F)cc2)nn1Cc1cccc(C(=O)N2CCC(O)CC2)c1` [Example 32, {3-[(3-{(Z)-1-Fluoro-2-[4-(trifluoromethoxy)phenyl]vinyl}-5-methyl-1H-pyrazol-1-yl)-methyl]phenyl}(4-hydroxypiperidin-1-yl)methanone], the IC50 was 4 nM.

In turn, `Cc1cc(/C(F)=C/c2ccc(C(C)(C)C(F)(F)F)cc2)nn1Cc1cccc(C(C)(C)O)c1` [Example 54, 2-{3-[(3-{(Z)-1-Fluoro-2-[4-(1,1,1-trifluoro-2-methylpropan-2-yl)phenyl]vinyl}-5-methyl-1H-pyrazol-1-yl)methyl]phenyl}propan-2-ol] came in with an IC50 of 3 nM.

As to `Cc1cc(/C(F)=C/c2ccc(C(C)(C)C(F)(F)F)cc2)nn1Cc1cccc(C(=O)N2CCCC2)c1` [Example 28, {3-[(3-{(Z)-1-Fluoro-2-[4-(1,1,1-trifluoro-2-methylpropan-2-yl)phenyl]vinyl}-5-methyl-1H-pyrazol-1-yl)methyl]phenyl}(pyrrolidin-1-yl)methanone], the IC50 was determined as 5 nM.

`Cc1cc(/C(F)=C/c2ccc(OC(F)(F)F)cc2)nn1Cc1cccc(C(=O)N2CCN(C)CC2)c1` [Example 42, {3-[(3-{(Z)-1-Fluoro-2-[4-(trifluoromethoxy)phenyl]vinyl}-5-methyl-1H-pyrazol-1-yl)methyl]-phenyl}(4-methylpiperazin-1-yl)methanone]: the IC50 is 4 nM.

Compound `Cc1cc(/C(F)=C/c2ccc(C(C)(C)C(F)(F)F)cc2)nn1Cc1cccc(N2CCC(O)CC2)c1` [Example 13, 1-{3-[(3-{(Z)-1-Fluoro-2-[4-(1,1,1-trifluoro-2-methylpropan-2-yl)phenyl]vinyl}-5-methyl-1H-pyrazol-1-yl)methyl]phenyl}piperidin-4-ol] displayed an IC50 of 0.5 nM.

Compound `Cc1cc(/C(F)=C/c2ccc(OC(F)(F)F)cc2)nn1Cc1cccc(N2CCC(O)CC2)c1` [Example 12, 1-{3-[(3-{(Z)-1-Fluoro-2-[4-(trifluoromethoxy)phenyl]vinyl}-5-methyl-1H-pyrazol-1-yl)methyl]phenyl}piperidin-4-ol] gave an IC50 of 0.3 nM.

`Cc1cc(/C(F)=C/c2ccc(SC(F)(F)F)cc2)nn1Cc1cccc(C(=O)N2CCC(O)CC2)c1` [Example 33, [3-({3-[(Z)-1-Fluoro-2-{4-[(trifluoromethyl)sulphanyl]phenyl}vinyl]-5-methyl-1H-pyrazol-1-yl}-methyl)phenyl](4-hydroxypiperidin-1-yl)methanone] showed an IC50 of 4 nM.

Regarding `Cc1ccc(Cn2nc(/C(F)=C/c3ccc(N4CC(C)OC(C)C4)nc3)cc2C)cc1` (stereo not shown) [Example 4, 4-(5-{(Z)-2-Fluoro-2-[5-methyl-1-(4-methylbenzyl)-1H-pyrazol-3-yl]vinyl}pyridin-2-yl)-2,6-dimethylmorpholine], half-maximal inhibition (IC50) required 2 nM.

As for `Cc1cc(/C(F)=C/c2ccc(SC(F)(F)F)cc2)nn1Cc1cccc(C2(CO)CC2)c1` [Example 56, {1-[3-({3-[(Z)-1-Fluoro-2-{4-[(trifluoromethyl)sulphanyl]phenyl}vinyl]-5-methyl-1H-pyrazol-1-yl}methyl)phenyl]cyclopropyl}methanol], the IC50 came to 2 nM.

`Cc1cc(/C(F)=C/c2ccc(S(F)(F)(F)(F)F)cc2)nn1Cc1ccnc(N2CCN(C3CC3)CC2)c1` [Example 107, 1-Cyclopropyl-4-{4-[(3-{(Z)-1-fluoro-2-[4-(pentafluoro-λ^6-sulphanyl)phenyl]vinyl}-5-methyl-1H-pyrazol-1-yl)methyl]pyridin-2-yl}piperazine] returned an IC50 of 0.3 nM.

Turning to `Cc1cc(/C(F)=C/c2ccc(C3(C(F)(F)F)CC3)cc2)nn1Cc1ccnc(N2CCN(C3CC3)CC2)c1` [Example 105, 1-Cyclopropyl-4-[4-({3-[(Z)-1-fluoro-2-{4-[1-(trifluoromethyl)cyclopropyl]phenyl}vinyl]-5-methyl-1H-pyrazol-1-yl}methyl)pyridin-2-yl]piperazine], the IC50 amounted to 0.5 nM.

`CNc1ccc(Cn2nc(/C(F)=C/c3ccc(S(F)(F)(F)(F)F)cc3)cc2C)cn1` [Example 91, 5-[(3-{(Z)-1-Fluoro-2-[4-(pentafluoro-λ^6-sulphanyl)phenyl]vinyl}-5-methyl-1H-pyrazol-1-yl)-methyl]-N-methylpyridine-2-amine] had an IC50 of 0.3 nM.

With `Cc1cc(/C(F)=C/c2ccc(C(F)(F)F)cc2)nn1Cc1cccc(C(=O)N2CCN(C3CC3)CC2)c1` [Example 41, (4-Cyclopropylpiperazin-1-yl) {3-[(3-{(Z)-1-fluoro-2-[4-(trifluoromethyl)phenyl]vinyl}-5-methyl-1H-pyrazol-1-yl)methyl]phenyl}methanone], the IC50 stood at 3 nM.

`Cc1cc(/C(F)=C/c2ccc(C(F)(F)F)cc2)nn1Cc1cccc(C(=O)N2CCC(O)CC2)c1` [Example 36, {3-[(3-{(Z)-1-Fluoro-2-[4-(trifluoromethyl)phenyl]vinyl}-5-methyl-1H-pyrazol-1-yl)methyl]-phenyl}(4-hydroxypiperidin-1-yl)methanone] returned an IC50 of 4 nM.

With `Cc1cc(/C(F)=C/c2ccc(C3(C(F)(F)F)CC3)cc2)nn1Cc1cccc(C(=O)N2CCN(C3CC3)CC2)c1` [Example 40, (4-Cyclopropylpiperazin-1-yl)[3-({3-[(Z)-1-fluoro-2-{4-[1-(trifluoromethyl)cyclopropyl]phenyl}-vinyl]-5-methyl-1H-pyrazol-1-yl}methyl)phenyl]methanone], the IC50 worked out at 2 nM.

In the case of `CNc1ccc(Cn2nc(/C(F)=C/c3ccc(CN(C(C)C)C(C)C)cc3)cc2C)cn1` [Example 94, 5-({3-[(Z)-2-{4-[(Diisopropylamino)methyl]phenyl}-1-fluorovinyl]-5-methyl-1H-pyrazol-1-yl}-methyl)-N-methylpyridine-2-amine], the half-maximal inhibitory concentration (IC50) stood at 1 nM.
